Results: ChEMBL document CHEMBL1124361, “Tetrapeptide inhibitors of the IgA1 proteinases from type I Neisseria gonorrhoeae” (J Med Chem, 1989)
Peptide text beside a SMILES is read from it.

Biological target: IgA-specific serine endopeptidase autotransporter (Neisseria gonorrhoeae, UniProt P09790)
Assay: Inhibitory concentration against type 1 IgA1 proteinases secreted by Neisseria gonorrhoeae

Sequence of IgA-specific serine endopeptidase autotransporter (P09790 whole entry): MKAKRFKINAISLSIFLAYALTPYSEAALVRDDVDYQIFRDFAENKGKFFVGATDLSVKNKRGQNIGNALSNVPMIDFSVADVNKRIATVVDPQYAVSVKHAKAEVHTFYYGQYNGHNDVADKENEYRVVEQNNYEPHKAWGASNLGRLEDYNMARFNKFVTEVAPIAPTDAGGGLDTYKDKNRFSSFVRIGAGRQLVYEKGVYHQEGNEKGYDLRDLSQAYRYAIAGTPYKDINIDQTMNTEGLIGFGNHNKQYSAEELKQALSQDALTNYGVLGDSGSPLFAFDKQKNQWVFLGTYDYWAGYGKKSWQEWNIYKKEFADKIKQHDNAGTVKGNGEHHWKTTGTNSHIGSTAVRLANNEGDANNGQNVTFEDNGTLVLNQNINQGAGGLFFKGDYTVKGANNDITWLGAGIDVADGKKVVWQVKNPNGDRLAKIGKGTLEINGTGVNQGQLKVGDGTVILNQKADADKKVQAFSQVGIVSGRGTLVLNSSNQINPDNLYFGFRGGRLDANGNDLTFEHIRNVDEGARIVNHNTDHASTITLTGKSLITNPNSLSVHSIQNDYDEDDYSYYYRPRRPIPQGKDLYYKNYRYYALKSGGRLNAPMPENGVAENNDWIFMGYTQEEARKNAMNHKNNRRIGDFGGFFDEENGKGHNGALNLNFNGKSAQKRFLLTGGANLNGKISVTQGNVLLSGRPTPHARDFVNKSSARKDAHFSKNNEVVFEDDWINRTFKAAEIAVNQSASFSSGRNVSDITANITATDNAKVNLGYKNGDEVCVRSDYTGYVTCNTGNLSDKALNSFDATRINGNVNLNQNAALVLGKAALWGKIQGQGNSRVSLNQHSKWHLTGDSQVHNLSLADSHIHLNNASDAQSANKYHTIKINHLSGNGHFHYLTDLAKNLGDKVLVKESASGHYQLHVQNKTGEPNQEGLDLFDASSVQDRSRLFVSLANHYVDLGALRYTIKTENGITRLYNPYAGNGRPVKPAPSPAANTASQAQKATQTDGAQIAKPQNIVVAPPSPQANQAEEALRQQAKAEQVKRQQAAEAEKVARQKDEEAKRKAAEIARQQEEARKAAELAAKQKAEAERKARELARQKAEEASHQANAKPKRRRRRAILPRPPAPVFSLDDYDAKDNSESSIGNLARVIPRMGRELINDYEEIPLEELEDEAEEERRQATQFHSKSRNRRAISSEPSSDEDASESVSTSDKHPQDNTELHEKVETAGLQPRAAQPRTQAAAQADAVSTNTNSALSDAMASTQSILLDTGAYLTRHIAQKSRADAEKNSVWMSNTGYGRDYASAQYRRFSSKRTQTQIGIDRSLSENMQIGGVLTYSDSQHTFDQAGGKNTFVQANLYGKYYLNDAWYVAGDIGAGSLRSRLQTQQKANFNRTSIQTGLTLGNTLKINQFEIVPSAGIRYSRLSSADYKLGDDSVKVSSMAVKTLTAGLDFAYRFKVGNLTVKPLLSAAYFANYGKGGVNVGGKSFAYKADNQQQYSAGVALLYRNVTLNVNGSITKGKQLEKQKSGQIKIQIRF

SMILES | IC50 [µM]
CC(=O)N1CCC[C@H]1C(=O)N1CCC[C@H]1C(=O)N[C@H](C(=O)N1CCC[C@H]1C(=O)O)[C@@H](C)O (Ac-PPTP-OH) | > 1000
CC(=O)N1CCC[C@H]1C(=O)N[C@@H](CO)C(=O)N1CCC[C@H]1C(=O)N[C@@H](CO)C(N)=O [ACETYLPROLYLSERYLPROLYLSERINAMIDE(ACPSPSNH2)] (Ac-PSPS-NH2) | > 1000
O=C(O)[C@H](CO)NC(=O)[C@@H]1CCCN1C(=O)[C@H](CO)NC(=O)[C@@H]1CCCN1 (H-PSPS-OH) | > 1000
CC(=O)N[C@H](C(=O)N1CCC[C@H]1C(=O)N1CCC[C@H]1C(=O)N[C@H](C(N)=O)[C@@H](C)O)[C@@H](C)O (Ac-TPPT-NH2) | > 1000
CC(=O)N[C@H](C(=O)N1CCC[C@H]1C(=O)N1CCC[C@H]1C(=O)N[C@H](C(=O)O)[C@@H](C)O)[C@@H](C)O (Ac-TPPT-OH) | > 1000
CC(=O)N1CCC[C@H]1C(=O)N[C@H](C(=O)N1CCC[C@H]1C(=O)N[C@@H](CO)C(N)=O)[C@@H](C)O [ACETYLPROLYLTHREONYLPROLYLSERINAMIDE(ACPTPSNH2)] (Ac-PTPS-NH2) | > 1000
CC(=O)N[C@H](C(=O)N1CCC[C@H]1C(=O)N[C@@H](CO)C(=O)N1CCC[C@H]1C(=O)O)[C@@H](C)O (Ac-TPSP-OH) | 183
C[C@@H](O)[C@H](NC(=O)[C@@H]1CCCN1C(=O)[C@@H]1CCCN1)C(=O)N1CCC[C@H]1C(N)=O [PROLYLPROLYLTHREONYLPROLINAMIDE(PPTPNH2)] (H-PPTP-NH2) | > 1000
CC(=O)N[C@H](C(=O)N1CCC[C@H]1C(=O)N[C@@H](CO)C(=O)N1CCC[C@H]1C(N)=O)[C@@H](C)O [ACETYLTHREONYLPROLYLSERYLPROLINAMIDE(ACTPSPNH2)] (Ac-TPSP-NH2) | > 1000
C[C@@H](O)[C@H](NC(=O)[C@@H]1CCCN1)C(=O)N1CCC[C@H]1C(=O)N[C@@H](CO)C(=O)O (H-PTPS-OH) | > 1000
C[C@@H](O)[C@H](NC(=O)[C@@H]1CCCN1C(=O)[C@@H]1CCCN1)C(=O)N1CCC[C@H]1C(=O)O (H-PPTP-OH) | 40.5
C[C@@H](O)[C@H](N)C(=O)N1CCC[C@H]1C(=O)N1CCC[C@H]1C(=O)N[C@H](C(N)=O)[C@@H](C)O (H-TPPT-NH2) | 419
CC(=O)N1CCC[C@H]1C(=O)N[C@H](C(=O)N1CCC[C@H]1C(=O)N[C@@H](CO)C(=O)O)[C@@H](C)O (Ac-PTPS-OH) | 23.8
CC(=O)N[C@@H](CO)C(=O)N[C@H](C(=O)N1CCC[C@H]1C(=O)N1CCC[C@H]1C(N)=O)[C@@H](C)O (Ac-STPP-NH2) | > 1000
CC(=O)N1CCC[C@H]1C(=O)N[C@@H](CO)C(=O)N1CCC[C@H]1C(=O)N[C@@H](CO)C(=O)O (Ac-PSPS-OH) | 675
CC(=O)N1CCC[C@H]1C(=O)N1CCC[C@H]1C(=O)N[C@H](C(=O)N1CCC[C@H]1C(N)=O)[C@@H](C)O [ACETYLPROLYLPROLYLTHREONYLPROLINAMIDE(ACPPTPNH2)] (Ac-PPTP-NH2) | > 1000
C[C@@H](O)[C@H](NC(=O)[C@@H](N)CO)C(=O)N1CCC[C@H]1C(=O)N1CCC[C@H]1C(=O)O (H-STPP-OH) | 73
NC(=O)[C@H](CO)NC(=O)[C@@H]1CCCN1C(=O)[C@H](CO)NC(=O)[C@@H]1CCCN1 (H-PSPS-NH2) | > 1000
C[C@@H](O)[C@H](N)C(=O)N1CCC[C@H]1C(=O)N[C@@H](CO)C(=O)N1CCC[C@H]1C(=O)O (H-TPSP-OH) | 33.1
C[C@@H](O)[C@H](N)C(=O)N1CCC[C@H]1C(=O)N1CCC[C@H]1C(=O)N[C@H](C(=O)O)[C@@H](C)O (H-TPPT-OH) | > 1000
C[C@@H](O)[C@H](NC(=O)[C@@H]1CCCN1)C(=O)N1CCC[C@H]1C(=O)N[C@@H](CO)C(N)=O (H-PTPS-NH2) | 5.3
C[C@@H](O)[C@H](N)C(=O)N1CCC[C@H]1C(=O)N[C@@H](CO)C(=O)N1CCC[C@H]1C(N)=O [THREONYLPROLYLSERYLPROLINAMIDE(TPSPNH2)] (H-TPSP-NH2) | > 1000
CC(=O)N[C@@H](CO)C(=O)N[C@H](C(=O)N1CCC[C@H]1C(=O)N1CCC[C@H]1C(=O)O)[C@@H](C)O (Ac-STPP-OH) | 9.7
C[C@@H](O)[C@H](NC(=O)[C@@H](N)CO)C(=O)N1CCC[C@H]1C(=O)N1CCC[C@H]1C(N)=O (H-STPP-NH2) | > 1000
